Results from patent publication US6683085B2, “Salt form and polymorphs” (Pfizer Inc., priority 2000, dated 2004).
Structures can show the parent of a compound that is named as a salt. Blank lines part the entries; values can stand above or below the compound they belong to.

What was measured:
Hygroscopicity at 90% RH = assay type: physicochemical; conditions: for Hygroscopity % (w/w) at 90% RH: Table 4, polymorphic forms of the free base
[1] = Moisture sorption at 30° C. and 45% RH; assay type: physicochemical
[2] = Solubility of the mesylate salt and free base forms; assay type: physicochemical
[3] = Water content of the hydrated form of the free base; assay type: physicochemical
Excerpt: The water content of the hydrated form of the free base (Form D) at ambient conditions is commonly of the order of 9 to 10% (w/w). This is equivalent to 2.5 to 2.8 moles of water per mole of the free base. […] The first mole was lost below 5% RH the second retained down to 1% RH see FIG. 11. It is likely that extended storage of the hydrated form below about 18% RH would result in dehydration. Furthermore, removal of the crystalline water results in the loss of the crystal lattice, the product being predominantly amorphous. This highlights a potential problem in using the conventional hydrated form in manufacturing a pharmaceutical formulation. Dehydration was observed on thermal analysis as a broad double endotherm at 97/113° C. (See FIG. 8)

[4] = system: male and female Sprague-Dawley rats; experiment: Daily oral administration to rats for 1 month; assay type: in vivo; conditions: rat, 30 mg/kg for 1 month
[5] = Stability over a wide range of conditions; assay type: physicochemical; conditions: e.g. high light intensity

Compound: COc1cc2nc(N3CCc4c(cccc4NS(C)(=O)=O)C3)nc(N)c2c(-c2ccccn2)c1OC [Form A, 4-Amino-6,7-dimethoxy-2-(5-methanesulfonamido-1,2,3,4-tetrahydroisoquinol-2-yl)-5-(2-pyridyl)quinazoline]
- Hygroscopity % (w/w) at 90% RH (Hygroscopicity at 90% RH; 90% RH): 2.2 % (w/w)
- Moisture sorption (% w/w) at 30° C. and 45% RH ([1]; listed as Free base (mpt 198° C.)): 1.39 % w/w
- Solubility ([2]; 0.9% sodium chloride at 22° C., listed as Free base (mpt 198° C.)): 36 micrograms/ml
- Solubility ([2]; Water at 22° C., listed as Free base (mpt 198° C.)): 420 micrograms/ml

Compound: COc1cc2nc(N3CCc4c(cccc4NS(C)(=O)=O)C3)nc(N)c2c(-c2ccccn2)c1OC [Form B, 4-Amino-6,7-dimethoxy-2-(5-methanesulfonamido-1,2,3,4-tetrahydroisoquinol-2-yl)-5-(2-pyridyl)quinazoline]
- Hygroscopity % (w/w) at 90% RH (Hygroscopicity at 90% RH; 90% RH): 0.27 % (w/w)

More lines, main results first:

- Hygroscopity % (w/w) at 90% RH (Hygroscopicity at 90% RH; 90% RH): 12.8 % (w/w)
- Moisture sorption (% w/w) at 30° C. and 45% RH ([1]; listed as Hydrated form of free base): 11.24 % w/w
- Water content ([3]; 90% RH): 12.8 % (w/w)
- Water content, moles of water ([3]; 90% RH): 3.6 moles of water
- Water content ([3]; ambient conditions): 9 to 10 % (w/w)
- Solubility ([2]; 0.9% sodium chloride at 22° C., listed as Hydrated form of free base): 4 micrograms/ml
- Solubility ([2]; Water at 22° C., listed as Hydrated form of free base): 12 micrograms/ml
Compound: COc1cc2nc(N3CCc4c(cccc4NS(C)(=O)=O)C3)nc(N)c2c(-c2ccccn2)c1OC [Form D, 4-Amino-6,7-dimethoxy-2-(5-methanesulfonamido-1,2,3,4-tetrahydroisoquinol-2-yl)-5-(2-pyridyl)quinazoline, reference compound]
- Water content, moles of water per mole of the free base ([3]; ambient conditions): 2.5 to 2.8 moles of water per mole of the free base

- Hygroscopity % (w/w) at 90% RH (Hygroscopicity at 90% RH; 90% RH): 0.045 % (w/w)
Compound: COc1cc2nc(N3CCc4c(cccc4NS(C)(=O)=O)C3)nc(N)c2c(-c2ccccn2)c1OC [Form E, 4-Amino-6,7-dimethoxy-2-(5-methanesulfonamido-1,2,3,4-tetrahydroisoquinol-2-yl)-5-(2-pyridyl)quinazoline]

- Hygroscopicity % (w/w) at 90% RH (Hygroscopicity at 90% RH; 90% RH, Table 1, mesylate salt): 1.1 % (w/w)
- Hygroscopicity compared with another form (Hygroscopicity at 90% RH; over a wide range of relative humidity, comparison in words): substantially lower than the free base
- Moisture sorption (% w/w) at 30° C. and 45% RH ([1]; listed as Mesylate salt (mpt 279° C.), mesylate): 0.56 % w/w
- Stability [5]: good stability
- Solubility ([2]; 0.9% sodium chloride at 22° C., mesylate): 120 micrograms/ml
- Solubility ([2]; Water at 22° C., mesylate): 880 micrograms/ml
Compound: COc1cc2nc(N3CCc4c(cccc4NS(C)(=O)=O)C3)nc(N)c2c(-c2ccccn2)c1OC [Mesylate salt, 4-amino-6,7-dimethoxy-2-(5-methanesulfonamido-1,2,3,4-tetrahydroisoquinol-2-yl)-5-(2-pyridyl)quinazoline mesylate]
- Adverse effects [4]: no evidence of adverse effects
- Changes linked to the pharmacological activity [4]: induced changes linked to the pharmacological activity of the compound
